Measured values published in PubChem BioAssay (NCI).
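96-well plates; 48 h exposure; 5 concentrations. Endpoints by linear interpolation between flanking doses. Not reached: highest tested concentration assigned. TGI marks complete inhibition of growth.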

Experiments:
Assay in all cases: DTP human tumour cell line panel, 48 h
[1] = test system: A498 renal
[2] = test system: ACHN renal
[3] = test system: BT-549 breast
[4] = test system: CAKI-1 renal
[5] = test system: CCRF-CEM leukemia
[6] = test system: COLO 205 colon
[7] = test system: DU-145 prostate
[8] = test system: EKVX NSCLC
[9] = test system: HCC-2998 colon
[10] = test system: HCT-116 colon
[11] = test system: HCT-15 colon
[12] = test system: HL-60(TB) leukemia
[13] = test system: HOP-62 NSCLC
[14] = test system: HOP-92 NSCLC
[15] = test system: HS 578T breast
[16] = test system: HT29 colon
[17] = test system: IGROV1 ovarian
[18] = test system: K-562 leukemia
[19] = test system: KM12 colon
[20] = test system: LOX IMVI melanoma
[21] = test system: M14 melanoma
[22] = test system: MALME-3M melanoma
[23] = test system: MCF7 breast
[24] = test system: MDA-MB-231 breast
[25] = test system: MDA-MB-435
[26] = test system: MDA-N
[27] = test system: MOLT-4 leukemia
[28] = test system: NCI-H226 lung
[29] = test system: NCI-H23 lung
[30] = test system: NCI-H460 lung
[31] = test system: NCI-H522 lung
[32] = test system: NCI/ADR-RES ovarian
[33] = test system: OVCAR-3 ovarian
[34] = test system: OVCAR-4 ovarian
[35] = test system: OVCAR-5 ovarian
[36] = test system: PC-3 prostate
[37] = test system: RPMI-8226 leukemia
[38] = test system: RXF 393 renal
[39] = test system: SF-268 CNS
[40] = test system: SK-MEL-28 melanoma
[41] = test system: SK-MEL-5 melanoma
[42] = test system: SK-OV-3 ovarian
[43] = test system: SN12C renal
[44] = test system: SNB-19 CNS
[45] = test system: SNB-75 CNS
[46] = test system: SR leukemia
[47] = test system: SW-620 colon
[48] = test system: T-47D breast
[49] = test system: TK-10 renal
[50] = test system: U251 CNS
[51] = test system: UACC-62 melanoma
[52] = test system: UO-31 renal
[53] = test system: 786-0 renal
[54] = test system: A549 NSCLC
[55] = test system: OVCAR-8 ovarian
[56] = test system: SF-295 CNS
[57] = test system: SK-MEL-2 melanoma
[58] = test system: UACC-257 melanoma
[59] = test system: SF-539 CNS

CC1(C)C(=O)c2ccccc2OC1N1CCN(C2Oc3ccccc3C(=O)C2(C)C)CC1 (stereo not drawn)
TGI [1]: > 100 µM | TGI [2]: > 100 µM | TGI [3]: > 100 µM | TGI [4]: > 100 µM | TGI [5]: > 100 µM | TGI [6]: > 100 µM | TGI [7]: > 100 µM | TGI [8]: > 100 µM | TGI [9]: > 100 µM | TGI [10]: > 100 µM | TGI [11]: > 100 µM | TGI [12]: > 100 µM | TGI [13]: > 100 µM | TGI [14]: > 100 µM | TGI [15]: > 100 µM | TGI [16]: > 100 µM | TGI [17]: > 100 µM | TGI [18]: > 100 µM | TGI [19]: > 100 µM | TGI [20]: > 100 µM | TGI [21]: > 100 µM | TGI [22]: > 100 µM | TGI [23]: > 100 µM | TGI [24]: > 100 µM | TGI [25]: > 100 µM | TGI [26]: > 100 µM | TGI [27]: > 100 µM | TGI [28]: > 100 µM | TGI [29]: > 100 µM | TGI [30]: > 100 µM | TGI [31]: > 100 µM | TGI [32]: > 100 µM | TGI [33]: > 100 µM | TGI [34]: > 100 µM | TGI [35]: > 100 µM | TGI [36]: > 100 µM | TGI [37]: > 100 µM | TGI [38]: > 100 µM | TGI [39]: > 100 µM | TGI [40]: > 100 µM | TGI [41]: > 100 µM | TGI [42]: > 100 µM | TGI [43]: > 100 µM | TGI [44]: > 100 µM | TGI [45]: > 100 µM | TGI [46]: > 100 µM | TGI [47]: > 100 µM | TGI [48]: > 100 µM | TGI [49]: > 100 µM | TGI [50]: > 100 µM | TGI [51]: > 100 µM | TGI [52]: > 100 µM

CCCCCc1cc2cc3c(c(O)c2c(=O)[nH]1)C1(CCC3)C(O)=c2c(=O)c3c(=O)cc(OC)c(=O)c=3c(=O)c2=C1O (stereo not drawn)
TGI [53]: 2690 nM | TGI [1]: 4.58 µM | TGI [54]: 3.53 µM | TGI [2]: 2.25 µM | TGI [3]: 3.33 µM | TGI [4]: 2.8 µM | TGI [5]: > 18.7 µM | TGI [6]: 0.564 µM | TGI [7]: 3.34 µM | TGI [8]: 2.83 µM | TGI [9]: 4.42 µM | TGI [10]: 2.41 µM | TGI [11]: 2.33 µM | TGI [12]: 1.24 µM | TGI [13]: 7.67 µM | TGI [14]: 1.3 µM | TGI [15]: 5.42 µM | TGI [16]: 3.11 µM | TGI [17]: 3.48 µM | TGI [18]: > 18.7 µM | TGI [19]: 4.22 µM | TGI [20]: 2.85 µM | TGI [21]: 3.33 µM | TGI [22]: 2.95 µM | TGI [23]: 2.06 µM | TGI [24]: 4.28 µM | TGI [25]: 3.13 µM | TGI [26]: 3.84 µM | TGI [27]: 4.01 µM | TGI [28]: 4.21 µM | TGI [29]: 3.37 µM | TGI [30]: 3.12 µM | TGI [31]: 1.87 µM | TGI [32]: 15.3 µM | TGI [33]: 2.21 µM | TGI [34]: 4.44 µM | TGI [35]: 4.47 µM | TGI [55]: 3.25 µM | TGI [36]: 3.66 µM | TGI [37]: > 18.7 µM | TGI [38]: 1.82 µM | TGI [39]: 3.63 µM | TGI [56]: 11 µM | TGI [57]: 3.68 µM | TGI [40]: 3.68 µM | TGI [41]: 1.69 µM | TGI [42]: 5.38 µM | TGI [43]: 3.91 µM | TGI [44]: 3.86 µM | TGI [45]: 3.67 µM | TGI [46]: 4.27 µM | TGI [47]: 3.04 µM | TGI [48]: 2.76 µM | TGI [50]: 2.61 µM | TGI [58]: 4.64 µM | TGI [51]: 3.29 µM | TGI [52]: 1.94 µM

Cc1cn(C2CC(N)C(C(=O)NCC(=O)O)O2)c(=O)[nH]c1=O (stereo not drawn)
TGI [1]: > 100 µM | TGI [2]: > 100 µM | TGI [3]: > 100 µM | TGI [4]: > 100 µM | TGI [5]: > 100 µM | TGI [6]: > 100 µM | TGI [7]: > 100 µM | TGI [8]: > 100 µM | TGI [9]: > 100 µM | TGI [10]: > 100 µM | TGI [11]: > 100 µM | TGI [12]: > 100 µM | TGI [13]: > 100 µM | TGI [14]: > 100 µM | TGI [15]: > 100 µM | TGI [16]: > 100 µM | TGI [17]: > 100 µM | TGI [18]: > 100 µM | TGI [19]: > 100 µM | TGI [20]: > 100 µM | TGI [21]: > 100 µM | TGI [22]: > 100 µM | TGI [23]: > 100 µM | TGI [24]: > 100 µM | TGI [25]: > 100 µM | TGI [26]: > 100 µM | TGI [27]: > 100 µM | TGI [28]: > 100 µM | TGI [29]: > 100 µM | TGI [30]: > 100 µM | TGI [31]: > 100 µM | TGI [32]: > 100 µM | TGI [33]: > 100 µM | TGI [34]: > 100 µM | TGI [35]: > 100 µM | TGI [36]: > 100 µM | TGI [37]: > 100 µM | TGI [38]: > 100 µM | TGI [39]: > 100 µM | TGI [40]: > 100 µM | TGI [41]: > 100 µM | TGI [42]: > 100 µM | TGI [43]: > 100 µM | TGI [44]: > 100 µM | TGI [45]: > 100 µM | TGI [46]: > 100 µM | TGI [47]: > 100 µM | TGI [48]: > 100 µM | TGI [49]: > 100 µM | TGI [50]: > 100 µM | TGI [51]: > 100 µM | TGI [52]: > 100 µM

COC12CCCN1c1ccn(Cc3ccccc3)c(=O)c1C2=O (stereo not drawn)
TGI [53]: > 100000 nM | TGI [1]: > 100 µM | TGI [54]: > 100 µM | TGI [2]: > 100 µM | TGI [3]: > 100 µM | TGI [4]: > 100 µM | TGI [5]: > 100 µM | TGI [6]: > 100 µM | TGI [7]: > 100 µM | TGI [8]: > 100 µM | TGI [9]: > 100 µM | TGI [10]: > 100 µM | TGI [11]: > 100 µM | TGI [12]: > 100 µM | TGI [14]: > 100 µM | TGI [15]: > 100 µM | TGI [16]: > 100 µM | TGI [17]: > 100 µM | TGI [18]: > 100 µM | TGI [19]: > 100 µM | TGI [20]: > 100 µM | TGI [21]: > 100 µM | TGI [22]: > 100 µM | TGI [23]: > 100 µM | TGI [24]: > 100 µM | TGI [25]: > 100 µM | TGI [26]: > 100 µM | TGI [27]: > 100 µM | TGI [28]: > 100 µM | TGI [29]: > 100 µM | TGI [30]: > 100 µM | TGI [31]: > 100 µM | TGI [32]: > 100 µM | TGI [33]: > 100 µM | TGI [34]: > 100 µM | TGI [35]: > 100 µM | TGI [55]: > 100 µM | TGI [36]: > 100 µM | TGI [38]: > 100 µM | TGI [39]: > 100 µM | TGI [56]: > 100 µM | TGI [59]: > 100 µM | TGI [57]: > 100 µM | TGI [40]: > 100 µM | TGI [41]: > 100 µM | TGI [42]: > 100 µM | TGI [43]: > 100 µM | TGI [44]: > 100 µM | TGI [45]: > 100 µM | TGI [46]: > 100 µM | TGI [47]: > 100 µM | TGI [48]: > 100 µM | TGI [49]: > 100 µM | TGI [50]: > 100 µM | TGI [58]: > 100 µM | TGI [51]: > 100 µM | TGI [52]: > 100 µM
